Reference: patent US20040054195A1, “Xanthene derivatives” (priority 2003, published 2004)
“And” between values parts separate entries of the source, which are not always exact repeats. Equal entries are not always repeated.

Tests used:
[1] = Photostability study: irradiation with a 200 W soft white bulb, fluorescence of aliquots vs. time; format: physicochemical; settings: 50 nM in pH 10 borate buffer, 200 watt soft white bulb at 10 cm, excitation at 459 nm, FIG. 4
Protocol: FIG. 4. Photostability comparison vs. time (hour) of 5 (*), 8 (▪), fluorescein (Δ) and BODIPY FL (♦); concentration 50 nM in pH 10 borate buffer. Excited at 459 nm for 5 and 8, 488 nm for fluorescein, 505 nm for BODIPY FL.
The photostability study was conducted by irradiating a 50 nM pH 10 sample solution of each dye (1, BODIPY-FL, 5 and 8) using a Hotspot lamp (Cheltenham, Pa.) with a 200W soft white bulb (General Electric, Canada), positioned at a distance of 10 cm between the sample and the bulb. The sample solution was cooled by circulating room temperature water. Fluorescence spectra were recorded on aliquots taken as a function of time.

[2] = UV absorbance spectrum in pH 10 borate buffer; format: physicochemical; settings: 10 μM, inset of FIG. 3
Protocol: FIG. 3. Fluorescence spectra. Curve A: BODIPY FL in pH 10 buffer, 50 nM, excited at 505 nm, excitation and emission slit 2.5 nm; Curve B: fluorescein in pH 10 borate buffer, 50 nM, excited at 488 nm, excitation and emission slit 2.5 nm; Curve C: compound 8 in pH 10 borate buffer, 50 nM, excited at 459 nm, excitation slit 2.5 nm, emission slit 8 nm; Curve D: compound 8 in methanol, 50 nM, excited at 459 nm, excitation slit 2.5 nm, emission slit 8 nm; Inset is UV spectrum of 8 in pH 10 borate buffer, 10 μM, peak absorption wavelength: 459 nm and 483 nm.
In FIG. 3 the fluorescence spectra of fluorescein, a BODPIY FL dye (Molecular Probes Inc., Eugene Oreg.), and xanthamide dye 8 are compared. Fluorescein and BODIPY dyes are popular, and many instruments have been set up for their measurement. Thus it is attractive that xanthamide dye 8 has a similar fluorescence emission relative to that of fluorescein and a typical BODIPY dye. […] This adds to the practicality of 8.

photostability relative to fluorescein and a typical BODIPY dye [1] | absorbance maxima [2] | Structure (SMILES)
very good photostability | – | CN(C)C(=O)c1ccccc1-c1c2ccc(=O)cc-2oc2cc(OCC(=O)O)ccc12 [compound 5, [9-(2-Dimethylcarbamoyl-phenyl)-6-oxo-6H-xanthen-3-yloxy]-acetic acid]
remarkable photostability | 459 nm and 483 nm | COc1ccc2c(-c3ccccc3C(=O)N3CCC(C(=O)O)CC3)c3ccc(=O)cc-3oc2c1 [compound 8, 1-[2-(6-Methoxy-3-oxo-3H-xanthen-9-yl)-benzoyl]-piperidine-4-carboxylic acid]
